Key:
[1] = Binding affinity to human FKBP F36V mutant
[2] = Binding affinity to human FKBP F36V/L106P mutant-YFP fusion protein expressed in NIH3T3 cells after 24 hrs; type: cell-based

Kd [1] [nM] | EC50 [2] [nM] | Compound
2.4 | 100 | CC[C@H](C(=O)N1CCCC[C@H]1C(=O)O[C@H](CCc1ccc(OC)c(OC)c1)c1cccc(OCCN2CCOCC2)c1)c1cc(OC)c(OC)c(OC)c1
29 | 1200 | CCC(CC)NC(=O)N1CCCC[C@H]1C(=O)O[C@H](CCc1ccc(OC)c(OC)c1)c1cccc(OCCN2CCOCC2)c1

Reference: ChEMBL document CHEMBL1143178, “Synthesis and analysis of stabilizing ligands for FKBP-derived destabilizing domains” (Bioorg Med Chem Lett, 2008)
